# From US8748435B2, “Pyrazolo pyrimidine derivatives” (Novartis AG, priority 2011, dated 2014)
# pIC50: −log10 of the molar value. Structures can show the parent of a compound that is named as a salt.
# Legend:
# human GPR4 [1] = target: T1, human GPR4 (Homo sapiens (Human), UniProt P46093); assay: Human GPR4 binding assay with additional human serum albumin (4% HSA); conditions: binding assay with 4% HSA
# Experimental: (§1) Cells were grown in T175 flasks to a density of about 1×10^6 cells/mL in growth medium. The cells were harvested by centrifugation (3000 rpm for 30 minutes at 4° C.) and the pellet resuspended in ice cold buffer A (20 mM HEPES pH 7.8, 10 mM EDTA, 100 mM NaCl, 1 tab/40 mL protease inhibitor complete). […] The homogenate was centrifuged at 18000 rpm for 50 min at 4° C. and the membrane protein pellet resuspended in cold buffer A using the Polytron (2×20 seconds). The protein concentration is determined using the Bio Rad Protein Assay and human IgG as standard. The volume of the membrane protein suspension is adjusted to a final concentration of about 2 mg protein/mL. The suspension is then once again homogenized (Polytron) on ice at 25000 rpm for 20 seconds before being aliquoted and stored at −80° C.
# (§2) Radio Ligand Binding Assay: Serial dilutions of compounds (stock in 10 mM DMSO) are prepared by first diluting the compounds in DMSO followed by a 1:50 dilution into assay buffer (10 mM HEPES, pH 8.0, 100 mM NaCl, 5 mM MgCl2, 1 mM CaCl2, 0.5% fatty acid-free BSA, 0.05% Tween-20). […] The desired amount of membranes (20 μg/well) is diluted with assay buffer. […] 100 μL of the membrane-suspension is added and the plate stirred for 60 minutes. […] The filter plate is washed 5 times with ice-cold wash buffer, dried and sealed at the bottom. Then 20 μL of Microscint 40 is added into each well and the top of the plate is sealed. Finally the plate is counted for 2 min/well in a TopCount NXT instrument (Packard Instruments). The data are analyzed using the GraphPad Prism™ software.
# In a similar manner, a binding assay with additional human serum albumin (4% HSA) has been established.
# mouse GPR4 = mouse GPR4 (Mus musculus (Mouse), UniProt Q8BUD0); assay: Mouse GPR4 cAMP assay; assay type: cell-based
# Experimental: (§3) HeLa cells stably expressing human GPR4 were established by transfecting the cells with a construct containing the human GPR4 coding sequence. The cells were grown in Dulbecco's Modified Eagle Medium (DMEM)/HAM's tissue culture medium F12 (HAM's F12) supplemented with 10% fetal calf serum (FCS), 100 u/ml penicillin, 100 μg/ml streptomycin and 400 μg/ml G418 and 10 mM Hepes pH 8.0. pH-induced formation of cAMP was determined using the homogeneous time resolved fluorescence (HTRF) technology as provided by CisBio Inc. The cells were seeded in 384-well plates and cultured for 24 hours at 37° C., 5% CO2 before performing the assay. Medium was removed and 10 μl buffer A (Hepes buffered saline (HBS), 10 mM Hepes, pH 8, 2 mM 3-Isobutyl-1-methylxanthin (IBMX)) was added. For compound testing, buffer A with 2× concentrated compounds was used. Cells were incubated for 15 min at room temperature. 10 μl buffer B (HBS, 30 mM Hepes, specific pH) was added to reach the appropriate final pH for stimulation (see below) and incubation was continued for 15 min at room temperature. […] HBS: 130 mM NaCl, 0.9 mM NaH2 PO4, 5.4 mM KCl, 0.8 mM MgSO4, CaCl2 1.8 mM, 25 mM glucose, 10-30 mM Hepes. Adjustment of HBS buffers:
# (§4) Compounds were diluted from fresh stock solutions at 10 mM in DMSO to 2 mM and then used for serial dilutions in DMSO.
# (§5) In a similar manner, assays for the mouse (m) and rat (r) GPR4 receptors have been established.
# Human H3 = Human H3 (Homo sapiens (Human), UniProt Q9Y5N1); assay: Human H3 binding assay (SPA, [3H]-R-alpha-Methylhistamine); conditions: 3 nM [3H]-R-alpha-Methylhistamine
# Experimental: c) Human H3 Binding Assay
# The Scintillation Proximity Binding Assay (SPA) assay was performed in a final volume of 50 μL per well in a 384-well polystyrene plate.
# The final concentration of the radioligand was 3 nM. • 20 μL of a beads (PVT-WGA type A) and membranes mixed suspension in assay buffer, in order to get a final concentration of 10 μg/well of membranes and 200 μg/well of beads. As an example, 1471 μL membranes (Conc.: 5.1 mg/mL) and 1500 μL of bead suspension (Conc.: 100 mg/mL) are diluted to a final volume of 15 mL of assay buffer.
# The plates were sealed and shaken at room temperature, then allowed to stand at room temperature for at least 1 hour. The plates were counted using a Perkin Elmer TopCount reader, each well being counted for 1 minute.
# human GPR4 [2] = target: T1, human GPR4; assay: Human GPR4 binding assay ([3H]4 radioligand, membranes of 300.19 cells expressing human GPR4)
# Experimental: a) Human GPR4 Binding Assay
# as §1, §2
# human GPR4 [3] = target: T1, human GPR4; assay: Cell-based assay for human GPR4 activity (pH-induced cAMP formation, HTRF, HeLa cells); conditions: HeLa cells stably expressing human GPR4, pH-induced cAMP
# Experimental: b) Cell-Based Assay for Human GPR4 Activity
# as §3, §4
# rat GPR4 = rat GPR4 (Rattus norvegicus (Rat), UniProt Q4KLH9); assay: Rat GPR4 cAMP assay; assay type: cell-based; conditions: read-out: r cAMP IC50
# Experimental: as §3, §4, §5
# [4] = radioligand [3H]4 (example 39), membranes of 300.19 cells expressing human GPR4
# mouse GPR4, sequence (Q8BUD0 whole entry): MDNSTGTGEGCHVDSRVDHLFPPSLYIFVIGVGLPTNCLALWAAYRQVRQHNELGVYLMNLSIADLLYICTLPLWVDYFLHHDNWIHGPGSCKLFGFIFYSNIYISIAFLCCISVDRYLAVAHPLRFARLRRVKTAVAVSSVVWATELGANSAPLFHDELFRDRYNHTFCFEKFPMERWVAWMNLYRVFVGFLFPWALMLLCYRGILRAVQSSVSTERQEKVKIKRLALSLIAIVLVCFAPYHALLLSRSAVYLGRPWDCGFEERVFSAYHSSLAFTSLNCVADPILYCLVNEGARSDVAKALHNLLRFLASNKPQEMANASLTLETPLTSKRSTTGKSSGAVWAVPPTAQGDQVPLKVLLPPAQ
# Human H3, sequence (Q9Y5N1 whole entry): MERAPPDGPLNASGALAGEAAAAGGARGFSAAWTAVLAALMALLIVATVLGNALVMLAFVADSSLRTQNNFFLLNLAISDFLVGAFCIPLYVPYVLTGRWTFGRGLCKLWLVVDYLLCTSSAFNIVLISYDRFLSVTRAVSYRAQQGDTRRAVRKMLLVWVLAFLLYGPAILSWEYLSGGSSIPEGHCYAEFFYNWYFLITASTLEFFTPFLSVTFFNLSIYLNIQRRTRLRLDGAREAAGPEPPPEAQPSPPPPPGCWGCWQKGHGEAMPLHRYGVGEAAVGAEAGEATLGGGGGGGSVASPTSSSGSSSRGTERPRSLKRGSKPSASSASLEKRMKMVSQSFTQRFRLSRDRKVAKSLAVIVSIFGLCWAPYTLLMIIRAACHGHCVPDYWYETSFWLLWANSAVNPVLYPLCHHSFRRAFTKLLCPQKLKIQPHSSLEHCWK
# T1 sequence (P46093 whole entry): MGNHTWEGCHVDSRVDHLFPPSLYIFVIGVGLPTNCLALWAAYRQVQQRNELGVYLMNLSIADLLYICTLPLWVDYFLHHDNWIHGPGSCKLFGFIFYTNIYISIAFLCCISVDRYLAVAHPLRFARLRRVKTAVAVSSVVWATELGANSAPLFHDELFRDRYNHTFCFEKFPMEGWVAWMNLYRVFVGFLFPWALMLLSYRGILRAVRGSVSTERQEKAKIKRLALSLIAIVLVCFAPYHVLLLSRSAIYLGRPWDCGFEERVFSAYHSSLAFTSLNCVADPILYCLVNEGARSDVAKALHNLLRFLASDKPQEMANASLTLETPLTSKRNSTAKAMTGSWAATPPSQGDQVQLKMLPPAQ
# rat GPR4, sequence (Q4KLH9 whole entry): as the sequence (Q8BUD0 whole entry) above, with G8W, H51R, S339T counted along it
SMILES,pIC50 (human GPR4 [1]),pIC50 (mouse GPR4),pIC50 (Human H3),pIC50 (human GPR4 [2]),pIC50 (human GPR4 [3]),pIC50 (rat GPR4),pIC50 (human GPR4 [2]; [4]),pIC50 (human GPR4 [1]; read-out: GPR4 4% HSA IC50)
"CCc1nn2c(C)cc(C)nc2c1Cc1ccc(/C=C/CC2(O)CNC2)cc1 [Example 2, 3-{(E)-3-[4-(2-Ethyl-5,7-dimethyl-pyrazolo[1,5-a]pyrimidin-3-ylmethyl)-phenyl]-allyl}-azetidin-3-ol]",7.28,6.20,< 5.00,7.47,7.26,6.00,–,–
"CCc1nn2c(C)cc(C)nc2c1Cc1ccc(/C=C/C(=O)N2CCNCC2)cc1 [Example 18, (E)-3-[4-(2-Ethyl-5,7-dimethyl-pyrazolo[1,5-a]pyrimidin-3-ylmethyl)-phenyl]-1-piperazin-1-yl-propenone hydrochloride]",–,5.89,< 4.52,–,7.37,5.75,7.09,7.17
"CCc1nn2c(C)cc(C)nc2c1Cc1ccc(/C=C/CN2CCN[C@@H](CN(C)C)C2)cc1 [Example 13, ((S)-4-{(E)-3-[4-(2-Ethyl-5,7-dimethyl-pyrazolo[1,5-a]pyrimidin-3-ylmethyl)-phenyl]-allyl}-piperazin-2-ylmethyl)-dimethyl-amine trihydrochloride]",8.15,6.41,5.31,8.15,7.17,5.77,–,–
"CCc1nn2c(C)cc(C)nc2c1Cc1ccc(OCCN2CCNCC2)cc1 [Example 26, 2-Ethyl-5,7-dimethyl-3-[4-(2-piperazin-1-yl-ethoxy)-benzyl]-pyrazolo[1,5-a]pyrimidine]",7.16,6.20,< 4.52,7.36,7.02,5.58,–,–
"CCc1nn2c(C)cc(C)nc2c1Cc1ccc(OCCN2CCN[C@@H](COC)C2)cc1 [Example 27, 2-Ethyl-3-{4-[2-((R)-3-methoxymethyl-piperazin-1-yl)-ethoxy]-benzyl}-5,7-dimethyl-pyrazolo[1,5-a]pyrimidine]",7.09,6.29,< 4.52,–,7.19,5.58,7.23,–
"CCc1nn2c(C)cc(C)nc2c1Cc1ccc(/C=C/CN2CCN[C@H](COC)C2)cc1 [Example 10, 2-Ethyl-3-{4-[(E)-3-((S)-3-methoxymethyl-piperazin-1-yl)-propenyl]-benzyl}-5,7-dimethyl-pyrazolo[1,5-a]pyrimidine]",7.03,6.40,< 4.52,–,7.27,5.87,7.48,–
"CCc1nn2c(C)cc(C)nc2c1Cc1ccc(/C=C/C2(O)CCNCC2)cc1 [Example 1, 4-{(E)-2-[4-(2-Ethyl-5,7-dimethyl-pyrazolo[1,5-a]pyrimidin-3-ylmethyl)-phenyl]-vinyl}-piperidin-4-ol]",7.60,6.58,< 4.52,7.35,7.43,6.03,–,–
"CCc1nn2c(C)cc(C)nc2c1Cc1ccc(/C=C/CN2CCN(C(=O)[C@H]3NCC[C@H]3O)CC2)cc1 [Example 16, (4-{(E)-3-[4-(2-Ethyl-5,7-dimethyl-pyrazolo[1,5-a]pyrimidin-3-ylmethyl)-phenyl]-allyl}-piperazin-1-yl)-((2S,3R)-3-hydroxy-pyrrolidin-2-yl)-methanone dihydrochloride]",6.92,6.70,< 4.52,–,7.39,6.08,7.46,–
"CCc1nn2c(C)cc(C)nc2c1Cc1ccc(/C=C/CN2CCC(c3nnnn3C)CC2)cc1 [Example 12, 2-Ethyl-5,7-dimethyl-3-(4-{(E)-3-[4-(1-methyl-1H-tetrazol-5-yl)-piperidin-1-yl]-propenyl}-benzyl)-pyrazolo[1,5-a]pyrimidine hydrochloride]",–,6.63,< 4.52,–,7.57,6.74,7.48,–
"CCc1nn2c(C)cc(C)nc2c1Cc1ccc(OC[C@H]2CC[C@@H](NC(=O)[C@H]3NCC[C@H]3O)CC2)cc1 [Example 24, (2S,3R)-3-Hydroxy-pyrrolidine-2-carboxylic acid {4-[4-(2-ethyl-5,7-dimethyl-pyrazolo[1,5-a]pyrimidin-3-ylmethyl)-phenoxymethyl]-cyclohexyl}-amide]",7.20,6.44,< 4.52,–,7.15,6.10,–,–

# Compounds with a higher pIC50 (mouse GPR4), results first:
pIC50 (human GPR4 [1]),pIC50 (mouse GPR4),pIC50 (Human H3),pIC50 (human GPR4 [2]),pIC50 (human GPR4 [3]),pIC50 (rat GPR4),pIC50 (human GPR4 [2]; [4]),pIC50 (human GPR4 [1]; read-out: GPR4 4% HSA IC50),SMILES
7.54,6.74,< 4.52,–,7.35,6.09,7.82,–,"CCc1nn2c(C)cc(C)nc2c1Cc1ccc(-c2nnc(C3CCN(C(=O)[C@H](CO)NC)CC3)o2)cc1 [Example 38, (S)-1-(4-{5-[4-(2-Ethyl-5,7-dimethyl-pyrazolo[1,5-a]pyrimidin-3-ylmethyl)-phenyl]-[1,3,4]oxadiazol-2-yl}-piperidin-1-yl)-3-hydroxy-2-methylamino-propan-1-one hydrochloride]"
7.92,6.90,< 4.52,–,7.26,6.16,8.00,–,"CCc1nn2c(C)cc(C)nc2c1Cc1ccc(/C=C/CN2CCNCC2)cc1 [Example 14, 2-Ethyl-5,7-dimethyl-3-[4-((E)-3-piperazin-1-yl-propenyl)-benzyl]-pyrazolo[1,5-a]pyrimidine]"
7.31,6.91,< 4.52,–,7.51,6.47,7.36,–,"CCc1nn2c(C)cc(C)nc2c1Cc1ccc(/C=C/CC2(O)CCNCC2)cc1 [Example 3, 4-{(E)-3-[4-(2-Ethyl-5,7-dimethyl-pyrazolo[1,5-a]pyrimidin-3-ylmethyl)-phenyl]-allyl}-piperidin-4-ol]"
7.92,7.05,< 4.52,–,–,6.69,7.72,–,"CCc1nn2c(C)cc(C)nc2c1Cc1ccc(OCC2CCN(C(=O)[C@H]3NCC[C@H]3O)CC2)cc1 [Example 22, {4-[4-(2-Ethyl-5,7-dimethyl-pyrazolo[1,5-a]pyrimidin-3-ylmethyl)-phenoxymethyl]-piperidin-1-yl}-((2S,3R)-3-hydroxy-pyrrolidin-2-yl)-methanone]"
7.96,7.15,< 4.52,–,7.77,6.79,7.82,–,"CCc1nn2c(C)cc(C)nc2c1Cc1ccc(/C=C/C[C@]2(O)CCN[C@@H](C)C2)cc1 [Example 5, (2S,4S)-4-{(E)-3-[4-(2-Ethyl-5,7-dimethyl-pyrazolo[1,5-a]pyrimidin-3-ylmethyl)-phenyl]-allyl}-2-methyl-piperidin-4-ol]"
